This is an account of results in patent publication US20230234920A1, “Azirine Containing Compounds as Anti-Angiogenesis Agents and a Process for the Preparation Thereof” (COUNCIL OF SCIENTIFIC & INDUSTRIAL RESEARCH, priority 2020, published 2023).

pIC50: −log10 of the molar value.

One data set concerns HUVECs. As to the kind of experiment: Capillary-like tube formation assay (tubulogenesis). The format is cell-based, human. In a few lines: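 HUVECs seeded on Matrigel (regular or reduced growth factor) in incomplete ECM basal medium, treated with compound for 6 h; VEGF 50 ng/mL positive and sunitinib 50 nM negative controls. Calcein-AM-stained tubules imaged at 10× and tubule length expressed as % of 0.1% DMSO vehicle.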

In the next data set the test system is Balb/c mice. Put plainly: Ear angiogenesis assay. The class given is in vivo. To be noted: 750 nM along with VEGF and bFGF. The protocol:
(A) Control (0.1% DMSO), (B) sunitinib and (C) Compound 1 at their indicated concentration dissolved in 100 μL of 1×PBS injected into the […] of Balb/c mice (5 mice/treatment group). After 7 days of treatment ears were harvested, cryo-sectioned at […] thickness. CD31 immunostained and photographed under inverted microscope at 20× magnification. (B) Vasculature was quantified by counting total macro and micro blood vessels. Plotted graph is representative of four independent experiments and are represented as mean±SEM with significant difference compared with control at *p<0.05.
Sterile 1×PBS having mouse VEGF (50 ng/mL), bFGF (50 ng/mL), Heparin (10 mg/mL) and sunitinib (2 μM) as a positive control along with compound 1 (750 nM) as a test compound were injected subcutaneously into the ear of 8- to 12-week old male Balb/c mice. Equal volume of 1×PBS with all components except drug was used as a control and was injected in contra lateral ear. After 6 days, mice were sacrificed and the ears were excised and embedded in OCT for cryo-sectioning. Frozen sections of […] sizes were immunostained with endothelial cell markers anti CD31 and anti PECAM 1 antibody. This was quantified by total number of blood vessels count.

The test system of data set [1] is MDA-MB 468 triple negative breast cancer. As to the kind of experiment: MDA-MB 468 xenograft mouse model. The class given is in vivo, nude mice. The source says: FIG. 13 represents Effect of Compound 1 on triple negative breast cancer celline MDA-MB 468 in xenograft mouse model.
A nude mice model bearing orthotopic HCT116 colon tumor or MDA-MB 468 was used to evaluate the anti-tumor angiogenesis effect of Compound 1 in vivo (FIG. 12). […] To investigate the effects of Compound 1 on angiogenesis and molecular targets in vivo, we examined the expression level of endothelial-specific marker (CD31) in tumor samples.

For a further data set, the system named is Endothelin-1 receptor. As to the kind of experiment: Endothelin-1 induced contraction of isolated artery rings. On the set-up: species or system mice. To be noted: for % contraction of aortic ring: ET-1 at 100 nM. The source says:
FIG. 15 represents effect of Compound 1 on endothelin-1 concentration-response curves. (A) Concentration-response curve of endothelin-1 in isolated carotid arteries of vehicle-treated (Control) and Compound 1 treated mice. (B) Concentration-response curve of endothelin-1 in isolated carotid arteries of vehicle-treated (Control) and compound 3 along with compound 8 treated mice.
To test for the selectivity of the putative Endothelin-1 receptor, we applied endothelin-1 or Compound 1 in a concentration dependent manner to the […] to observe its contraction inhibition activity (FIG. 15).

On to `CCOC(=O)C1N=C1CCc1ccc(OC)cc1` (racemic) [Compound 1, Ethyl 3-(4-methoxyphenethyl)-2H-azirine-2-carboxylate], for which the “anti-angiogenic activity on primary tubulogenesis screening” value with HUVECs is 75 nM. Moreover, the tubule formation result was “complete angiogenesis” with HUVECs (25 nM, 6 h); “approximately 15%” in the data set with HUVECs (100 nM combined with sunitinib at 20 nM, 6 h); “light increase in the tubule formation” in the data set with HUVECs (250 nM till 125 nM, 6 h). Moreover, the “tubule formation as compared to control” value in the data set with HUVECs (75 nM, 6 h) was 50%. Further, the tubulogenesis inhibition entry with HUVECs (10 μM till 500 nM, 6 h) is reported as “complete tubulogenesis inhibition”. Moreover, the pIC50 (as a rule, the negative decadic logarithm of the IC50, by convention in mol/L) in the data set with HUVECs (Homo sapiens, HUVEC, endothelial tubule network assay, anti-angiogenic activity, read-out: IC50 value) is 7.12. In addition, in the data set on HUVECs (remark on IC50 versus sunitinib), the remarks entry is recorded as “comparable to sunitinib”. In addition, the “toxic effect on the cells” value in the data set on HUVECs (till 500 nM, 6 h) is on record as “no toxic effect”. Also, in the data set on Balb/c mice, the “CD31 expression and micro-vessels density” value was “reduced CD31 expression and micro-vessels density”. Further, the tumor growth result in data set [1] (25 mg/kg) is “regresses tumor growth similar to that of sunitinib”; in data set [1] (40 mg/kg), “regresses tumor growth better than the standard compound sunitinib”. The “concentration initiating inhibition of ET-1 mediated contraction” value with Endothelin-1 receptor is recorded as 3 nM. Further, the figures for the “% contraction of aortic ring” value in the data set with Endothelin-1 receptor (10 nM), with Endothelin-1 receptor (30 nM) and with Endothelin-1 receptor (50 nM) were “about 35%”, around 25% and “about 20%”, respectively.
